From US11058700B2, “Macrocyclic lactones and uses thereof as modulators of purinergic receptors” (City of Hope, priority 2015, dated 2021)

Columns and labels:
[1] = test system: 4T1.2 breast cancer cells; test: Cytosolic Cl- influx; format: cell-based; conditions: mouse 4T1.2 cells
Protocol: Cytosolic Cl^− influx. Cancer cells in suspension were treated with various doses of Ivermectin in R10 medium for 1h at 37° C. and 5% CO2. Cells were then washed with PBS and loaded with 10 μM SPQ probe (Life Technologies, M440) in a hypotonic buffer containing 50% PBS and 50% double distilled water. Following brief 15 min incubation at room temperature in the dark cells were washed once with PBS and immediately analyzed by flow cytometry measuring fluorescence in the AF350 channel.

[2] = test system: murine and human TNBC cells; test: Reactive oxygen species; format: cell-based, mouse
Protocol: Reactive oxygen and nitrogen species. Cancer cells in suspension were washed with PBS and loaded with 50 μM H2DCFDA (Molecular Probes, Life Technologies, D399) or 5 μM DAF-2 (Cayman Chemical, Catalog #85165) for 30 min at room temperature in the dark. Cells were washed twice with PBS and treated with various doses of Ivermectin in R10 medium. Cells were incubated for 1h in 5 ml FACS tubes at 37° C. and 5% CO2, and immediately analyzed by flow cytometry. Generation of intracellular ROS and NO results in corresponding increases in the GFP fluorescence of the H2DCFDA and DAF-2 probes, respectively.

TNBC cells = test: Extracellular ATP release; format: cell-based, mouse, human
Protocol: FIGS. 3A-3G. Dual roles of ATP and purinergic signaling in Ivermectin's killing. FIG. 3A: Depletion of extracellular ATP with Apyrase (2500 μunits/ml) exacerbates killing of 4T1.2 cell by Ivermectin. FIG. 3B: Extracellular Ca^2− and ATP contain Ivermectin-induced cell swelling. 4T1.2 cells were treated with 32 μM Ivermectin for 4 h in the presence of 1 mM EDTA or 2500 μunits/ml Apyrase. FIG. 3C: Ivermectin (0.5-32 μM) and high concentrations of extracellular ATP (0.3-3 mM) synergistically open pannexin-1 channels and permeabilize the membrane on live cells (7AAD-positive dead cells were gated out). 4T1.2 cells were treated for 30 min as indicated in the presence of 7 AAD and 5 μM YOPRO-1. FIG. 3D: Analysis of supernatants from Ivermectin-treated murine and human TNBC cells showing rapid release of ATP followed by its transient depletion. Depletion of extracellular ATP with Apyrase (2500 μunits/ml) was used as a positive control. […]
Extracellular ATP release. […] The cancer cells engineered to stably express the membrane-bound Luciferase were treated with Ivermectin for 30 min-4 h and luminescence was measured in the presence of 2 μM Luciferin. ATP concentration in Ivermectin treated supernatants was measured using ATP determination kit (Life Technologies, A22066) following manufacturers' instructions.

4T1.2 cells [3] = test: Cell viability (acid phosphatase assay) of cancer cells treated with Ivermectin; format: cell-based, mouse; conditions: mouse and human breast cancer cells
Protocol: Cell viability. Cancer cells were plated on 96 well flat-bottom plates and allowed to attach overnight. Cells were then pre-incubated with drugs for 1 h and treated with Ivermectin for 4 h. In the case of 24 h and 48 h incubations the cells, Ivermectin and drugs were plated together. All treatments and controls were done in triplicate wells and results were validated in at least two independent experiments. Following treatment the plates were washed once with PBS and cell viability was measured using the acid phosphatase assay. Briefly, cells were incubated for 1h at 37° C. in 100 μL assay buffer (0.16 M sodium acetate, 0.1% Triton-X-100, supplemented with 4-Nitrophenyl phosphate disodium salt hexahydrate, Sigma Aldrich, at 0.00263 g/ml). Reaction was stopped using 10 μL of 1N sodium hydroxide. Absorption at 405 nm was measured within 10 min using a multi-well plate reader. Mode of cell death and viability of cells in suspension was evaluated using flow cytometry. Briefly, cancer cells were pre-incubated with drugs for 30 min to 1 h, as indicated, treated with Ivermectin for 4 h in 5 ml FACS tubes , washed twice in PBS and stained with PE-conjugated Annexin V and 7AAD (1 μl per 100 μl/200,000 cancer cells) for 15 min.

4T1.2 cells [4] = test: Cytosolic Ca2+ flux; format: cell-based, mouse
Protocol: Cytosolic Ca^2+ flux. Cancer cells in suspension were washed with PBS and loaded with 1 μM Rhod-3 AM (Life Technologies, R10145) for 30 min at room temperature in the dark. Cells were washed with PBS couple of times and treated with various doses of Ivermectin in R10 medium. Cells were incubated for 15 min to 4 h in 5 ml FACS tubes at 37° C. and 5% CO2, followed by immediate flow cytometry analysis of fluorescence in the PE channel. Chelating of extracellular and intracellular Ca^2+ was performed by supplementing the Ivermectin treatment medium with 1 mM EDTA (USB Corp, 15694) or by adding 20 μM BAPTA-AM (Tocris, 2787) to the Rhod-3 AM loading solution, respectively.

[5] = test system: 4T1.2 breast cancer cells; test: Flow cytometry of mode of cell death (Annexin V / 7AAD); format: cell-based, mouse; conditions: Ivermectin-treated breast cancer cells
Protocol: FIGS. 1A-1H. Ivermectin kills breast cancer cells through a mixed apoptotic and necrotic mechanism. FIG. 1A: Mouse (4T1.2) and human (MDA-MB-231) TNBC cells manifest similar sensitivity to Ivermectin. Viability of cells treated with various doses of Ivermectin for 24 h. FIG. 1B: Extended exposure time reduces IC50 values to as low as 2 μM. 4T1.2 cells were seeded at 100 cells/well and individual colonies were counted after a week. Cancer cells were exposed to Ivermectin during the initial 24 h or during the entire duration of the assay. FIG. 1C: MDA-MB-231 breast cancer cells manifest higher sensitivity to Ivermectin compared to normal non-transformed human foreskin fibroblasts (HFFs). FIG. 1D: Flow cytometry analysis showing that cell death proceeds through two distinct pathways: a directly necrotic 7AAD-single positive or Annexin V/PS-single positive apoptotic pathway. FIG. 1E: Kinetics of necrotic versus apoptotic killing of 4T1.2 breast cancer cells. FIG. 1F: Ivermectin-induced cell death can be reversed by inhibition of various controlled cell death pathways. […]
Cell viability. […] Following treatment the plates were washed once with PBS and cell viability was measured using the acid phosphatase assay. […] Absorption at 405 nm was measured within 10 min using a multi-well plate reader. Mode of cell death and viability of cells in suspension was evaluated using flow cytometry. […]

## CC[C@H](C)[C@H]1O[C@]2(CC[C@@H]1C)C[C@@H]1C[C@@H](C/C=C(\C)[C@@H](O[C@H]3C[C@H](OC)[C@@H](O[C@H]4C[C@H](OC)[C@@H](O)[C@H](C)O4)[C@H](C)O3)[C@@H](C)/C=C/C=C3\CO[C@@H]4[C@H](O)C(C)=C[C@@H](C(=O)O1)[C@]34O)O2 [Ivermectin]
[1]
  cytosolic Cl- influx: Cl^− influx
[2]
  generation of ROS: induces generation of ROS
TNBC cells
  extracellular ATP levels in supernatants: immediate increase in extracellular ATP levels
4T1.2 cells [3]
  Ivermectin doses giving rapid killing: ≥ 8 µM
4T1.2 cells [4]
  cytosolic Ca2+: sustained increases in cytosolic Ca^2+
[5]
  dying cancer cells directly necrotic (7AAD-positive): More than 90%
